Measured values taken from patent US6468998B1, “Pyrrolidine compounds and medicinal utilization thereof” (Mitsubishi Pharma Corporation, priority 1998, dated 2002).
Counter-ions that a name gives are not always drawn.

For Cc1ccccc1C(C(=O)N[C@H]1CCN(CCc2ccc(F)cc2)C1)c1ccccc1C [Example 75, (S)-2,2-bis(2-methylphenyl)-N-(1-(2-(4-fluorophenyl)ethyl)pyrrolidin-3-yl)acetamide], the melting point was 108 to 110 °C.
O=C(N[C@H]1CCN(CCc2cccc(F)c2)C1)C12CC3CC(CC(C3)C1)C2 [Example 9, (S)-N-(1-(2-(3-fluorophenyl)ethyl)pyrrolidin-3-yl)-1-adamantanecarboxamide] showed a melting point of 87 to 89 °C.
Work on O=C(N[C@H]1CCN(CCc2ccc(F)cc2)C1)C(c1ccccc1)c1ccccc1 (as salt: oxalate) (hydrate or solvate) [Example 24, (S)-N-(1-(2-(4-fluorophenyl)ethyl)pyrrolidin-3-yl)diphenylacetamide] yielded a melting point of 156 to 158 °C.
With COc1ccc(CCN2CC[C@H](NC(=O)C34CC5CC(CC(C5)C3)C4)C2)cc1 [Example 4, (S)-N-(1-(2-(4-methoxyphenyl)ethyl)pyrrolidin-3-yl)-1-adamantanecarboxamide] the melting point was 81 to 83 °C.
O=C(N[C@H]1CCN(CC2CCCc3ccccc32)C1)C12CC3CC(CC(C3)C1)C2 (stereo partly drawn) (as salt: hydrochloride) (hydrate or solvate) [Example 20, (S)-N-(1-((1,2,3,4-tetrahydronaphthalen-1-yl)methyl)pyrrolidin-3-yl)-1-adamantanecarboxamide] gave a melting point of 140 to 142 °C.
Compound O=C(N[C@H]1CCN(CCCc2ccc(F)cc2)C1)C12CC3CC(CC(C3)C1)C2 [Example 15, (S)-N-(1-(3-(4-fluorophenyl)propyl)pyrrolidin-3-yl)-1-adamantanecarboxamide] has a melting point of 114 to 115 °C.
CN(C(=O)C12CC3CC(CC(C3)C1)C2)[C@H]1CCN(CCc2cccc(F)c2)C1 (as salt: hydrochloride) (hydrate or solvate) [Example 65, (S)-N-methyl-N-(1-(2-(3-fluorophenyl)ethyl)pyrrolidin-3-yl)-1-adamantanecarboxamide] showed a melting point of 252 to 253 °C.
N#Cc1ccc(CCN2CC[C@H](NC(=O)C34CC5CC(CC(C5)C3)C4)C2)cc1 [Example 6, (S)-N-(1-(2-(4-cyanophenyl)ethyl)pyrrolidin-3-yl)-1-adamantanecarboxamide] showed a melting point of 104 to 105 °C.
With O=C(N[C@H]1CCN(Cc2ccccc2)C1)C12CC3CC(CC(C3)C1)C2 [Example 13, (S)-N-(1-benzylpyrrolidin-3-yl)-1-adamantanecarboxamide] the melting point was 130 to 132 °C.
O=C(Cc1ccccc1C1CCCC1)N[C@H]1CCN(CCc2ccccc2)C1 [Example 27, N-((S)-1-(2-phenylethyl)pyrrolidin-3-yl)-2-cyclopentylphenylacetamide] showed a melting point of 117 to 119 °C.
In the case of O=C(N[C@H]1CCN(CCc2ccc(F)cc2)C1)C(c1ccccc1F)c1ccccc1F [Example 74, (S)-2,2-bis(2-fluorophenyl)-N-(1-(2-(4-fluorophenyl)ethyl)pyrrolidin-3-yl)acetamide], the melting point is reported as 107 to 108 °C.
O=C(N[C@H]1CCN(CCc2ccc(F)cc2)C1)n1c2ccccc2c2ccccc21 [Example 72, (S)-N-(1-(2-(4-fluorophenyl)ethyl)pyrrolidin-3-yl)carbazole-9-carboxamide] showed a melting point of 107 to 108 °C.
With O=C(NC1CCN(CCc2ccc(F)cc2)C1)N1CC2CC3CC1C[C@@H](C3)C2 (stereo partly drawn) (as salt: hydrochloride) (hydrate or solvate) [Example 69, (S)-N-(1-(2-(4-fluorophenyl)ethyl)pyrrolidin-3-yl)-(4-azatricyclo[4.3.1.1(3,8)]undecan-4-yl)carboxamide] the melting point was 110 to 113 °C (dec.).
Work on O=C(N[C@H]1CCN(CCc2ccc(F)cc2)C1)C(c1cccs1)c1cccs1 [Example 73, (S)-2,2-di(2-thienyl)-N-(1-(2-(4-fluorophenyl)ethyl)pyrrolidin-3-yl)acetamide] yielded a melting point of 96 to 98 °C.
Compound O=C(N[C@H]1CCN(CCc2ccccc2C(F)(F)F)C1)C12CC3CC(CC(C3)C1)C2 (as salt: hydrochloride) (hydrate or solvate) [Example 12, (S)-N-(1-(2-(2-trifluoromethylphenyl)ethyl)pyrrolidin-3-yl)-1-adamantanecarboxamide] has a melting point of 127 to 128 °C.
For O=C(N[C@H]1CCN(C[C@H](O)c2ccccc2)C1)C12CC3CC(CC(C3)C1)C2 (as salt: hydrochloride) (hydrate or solvate) [Example 70, (S)-N-(1-((R)-2-hydroxy-2-phenylethyl)pyrrolidin-3-yl)-1-adamantanecarboxamide], the melting point was 139 to 141 °C.
CN(C(=O)C12CC3CC(CC(C3)C1)C2)[C@H]1CCN(CCc2ccc(F)cc2)C1 (as salt: hydrochloride) (hydrate or solvate) [Example 56, (S)-N-methyl-N-(1-(2-(4-fluorophenyl)ethyl)pyrrolidin-3-yl)-1-adamantanecarboxamide] showed a melting point of 253 to 254 °C.
For O=C(N[C@H]1CCN(C2Cc3ccccc3C2)C1)C12CC3CC(CC(C3)C1)C2 (as salt: hydrochloride) (hydrate or solvate) [Example 22, (S)-N-(1-(2,3-dihydroinden-2-yl)pyrrolidin-3-yl)-1-adamantanecarboxamide], the melting point was 278 to 279 °C.
For O=C(N[C@H]1CCN(CC2Cc3ccccc3C2)C1)C12CC3CC(CC(C3)C1)C2 (as salt: hydrochloride) (hydrate or solvate) [Example 18, (S)-N-(1-((2,3-dihydroinden-2-yl)methyl)pyrrolidin-3-yl)-1-adamantanecarboxamide], the melting point was 241 to 243 °C.
O=C(N[C@H]1CCN(CCc2ccccc2)C1)NC12CC3CC(CC(C3)C1)C2 (as salt: hydrochloride) (hydrate or solvate) [Example 51, (S)-1-(1-adamantyl)-3-(1-(2-phenylethyl)pyrrolidin-3-yl)urea] gave a melting point of 201 to 202 °C.
With O=C(N[C@H]1CCN(C[C@@H](O)c2ccccc2)C1)C12CC3CC(CC(C3)C1)C2 (as salt: hydrochloride) (hydrate or solvate) [Example 71, (S)-N-(1-((S)-2-hydroxy-2-phenylethyl)pyrrolidin-3-yl)-1-adamantanecarboxamide] the melting point was 149 to 151 °C.
For O=C(N[C@H]1CCN(CCc2ccc(C(F)(F)F)cc2)C1)C12CC3CC(CC(C3)C1)C2 (as salt: hydrochloride) (hydrate or solvate) [Example 5, (S)-N-(1-(2-(4-trifluoromethylphenyl)ethyl)pyrrolidin-3-yl)-1-adamantanecarboxamide], the melting point was 214 to 215 °C.
Work on O=C(N[C@H]1CCN(CCCc2ccc(Cl)cc2)C1)C12CC3CC(CC(C3)C1)C2 [Example 16, (S)-N-(1-(3-(4-chlorophenyl)propyl)pyrrolidin-3-yl)-1-adamantanecarboxamide] yielded a melting point of 117 to 119 °C.
Compound CN(C(=O)C12CC3CC(CC(C3)C1)C2)[C@@H]1CCN(CCc2ccc(F)cc2)C1 (as salt: hydrochloride) (hydrate or solvate) [Example 68, (R)-N-methyl-N-(1-(2-(4-fluorophenyl)ethyl)pyrrolidin-3-yl)-1-adamantanecarboxamide] has a melting point of 264 to 265 °C.
With O=C(N[C@H]1CCN(CCCc2ccccc2)C1)C12CC3CC(CC(C3)C1)C2 [Example 14, (S)-N-(1-(3-phenylpropyl)pyrrolidin-3-yl)-1-adamantanecarboxamide] the melting point was 118 to 120 °C.
O=C(N[C@H]1CCN(CCc2cccc(C(F)(F)F)c2)C1)C12CC3CC(CC(C3)C1)C2 (as salt: hydrochloride) (hydrate or solvate) [Example 11, (S)-N-(1-(2-(3-trifluoromethylphenyl)ethyl)pyrrolidin-3-yl)-1-adamantanecarboxamide] gave a melting point of 160 to 163 °C.
Work on O=C(N[C@H]1CCN(CCc2ccccc2)C1)C(c1ccccc1)c1ccccc1 (as salt: oxalate) [Example 23, (S)-N-(1-(2-phenylethyl)pyrrolidin-3-yl)diphenylacetamide] yielded a melting point of 191 to 192 °C.
For O=C(N[C@@H]1CCN(CCc2ccccc2)C1)C12CC3CC(CC(C3)C1)C2 [Example 63, (R)-N-(1-(2-phenylethyl)pyrrolidin-3-yl)-1-adamantanecarboxamide], the melting point was 118 to 120 °C.
O=C(N[C@H]1CCN(CCc2ccc(F)cc2)C1)N(C1CCCCC1)C1CCCCC1 [Example 48, (S)-1,1-dicyclohexyl-3-(1-(2-(4-fluorophenyl)ethyl)pyrrolidin-3-yl)urea] gave a melting point of 97 to 98 °C.
For O=C(N[C@H]1CCN(CCc2ccccc2)C1)C12CC3CC(CC(C3)C1)C2 [Example 1, (S)-N-(1-(2-phenylethyl)pyrrolidin-3-yl)-1-adamantanecarboxamide], the melting point was 119 to 121 °C.
With O=C(N[C@H]1CCN(CCc2ccccc2F)C1)C12CC3CC(CC(C3)C1)C2 [Example 10, (S)-N-(1-(2-(2-fluorophenyl)ethyl)pyrrolidin-3-yl)-1-adamantanecarboxamide] the melting point was 106 to 108 °C.
For O=C(N[C@H]1CCN(CCc2ccc(Cl)cc2)C1)C12CC3CC(CC(C3)C1)C2 [Example 3, (S)-N-(1-(2-(4-chlorophenyl)ethyl)pyrrolidin-3-yl)-1-adamantanecarboxamide], the melting point was 94 to 95 °C.
For O=C(N[C@H]1CCN(CCc2ccc(F)cc2)C1)C(C1CCCCC1)C1CCCCC1 [Example 26, (S)-N-(1-(2-(4-fluorophenyl)ethyl)pyrrolidin-3-yl)dicyclohexylacetamide], the melting point was 122 to 124 °C.
CN(C(=O)C12CC3CC(CC(C3)C1)C2)[C@H]1CCN(CCc2ccccc2F)C1 (as salt: hydrochloride) [Example 66, (S)-N-methyl-N-(1-(2-(2-fluorophenyl)ethyl)pyrrolidin-3-yl)-1-adamantanecarboxamide] showed a melting point of 241 to 242 °C.
O=C(N[C@H]1CCN(CCCCc2ccccc2)C1)C12CC3CC(CC(C3)C1)C2 [Example 17, (S)-N-(1-(4-phenylbutyl)pyrrolidin-3-yl)-1-adamantanecarboxamide] showed a melting point of 82 to 84 °C.
With O=C(N[C@H]1CCN(CCc2ccc(F)cc2)C1)C1=c2ccccc2=CC=C2CC=CC=C21 [Example 36, (S)-N-(1-(2-(4-fluorophenyl)ethyl)pyrrolidin-3-yl)dibenzo[a,d]cycloheptene-5-carboxamide] the melting point was 127 to 128 °C.
